According to patent US20230310643A1, “EXTRACORPOREAL CLEARING TRAPS BASED ON INVERSE ELECTRON DEMAND DIELS-ALDER CYCLOADDITION FOR (PRE)-TARGETED THERAPY AND DIAGNOSTICS” (RIGSHOSPITALET, priority 2020, published 2023):
Where a name gives a salt, the structure may show the parent alone.

Tests used:
[1] = system: TCO-CC49; experiment: Trapping of TCO-CC49 from PBS solution by tetrazine-agarose columns, eluate titrated with [111In]8; conditions: n = 2; for % TE mean ± SD, 2nd evaluation, TCO-CC49: repeated 9 days after first evaluation, columns stored at 4° C.; for % TE mean ± SD, 1st evaluation, TCO-CC49: trapping efficiency, single pass, 100 μg/mL in PBS, 0.5 mL/min
Method: (§1) Tetrazine-agarose columns, two for each tetrazine, each prepared from 33 mg of dry NHS-agarose as described above (bed volume approx. 0.25 mL), and a control column prepared from tetrazine-free agarose, were equilibrated with 2-3 bed volumes of PBS. Antibody TCO-CC49 (approx. 1 TCO groups per 20 kDa molecular weight) or polymer TCO-KS254 (approx. 1 TCO group per 5 kDa molecular weight) were dissolved in PBS with to a mass concentration of 100 μg/mL. Aliquots of these solutions (0.4 mL) were pumped through the tetrazine-agarose columns at 0.5 mL/min pumping speed using an infusion pump (AL-1000, World Precision Instruments). When all solution had entered the resin bed, an aliquot of PBS (0.4 mL) was immediately added on top of it and pumped through the column at 0.5 mL/min. Total eluate (total volume approx. 0.8 mL) was collected and the amount of TCO-CC49 or TCO-KS254 was determined by ^111In-tetrazine ([^111In]8) titration.
(§2) For each column, trapping of both TCO-CC49 and TCO-KS254 was tested, and the column was rinsed with 2-3 volumes of PBS between tests. For pairs of columns with the same tetrazine, the order of testing (TCO-CC49 first or TCO-KS254 first) for one column was opposite to the order of testing for another column.
(§3) An aliquot of each trapping column eluate (6 μL) was mixed with an equal volume of 10 μM [111In]8 solution. Resulting mixtures were shaken at 37° C. for at least 1 hour to ensure full consumption of reactive TCO moieties. Then NuPage LDS Sample buffer was added to all mixtures according to the supplier's instructions, samples were heated for 10 min at 70° C. and applied on the NuPAGE 4-12% Bis-Tris SDS-PAGE gels. SDS-PAGE was run in MES-SDS buffer at 150V for 40-45 min. Separation was monitored by running SeeBlue® Plus2 Pre-Stained Protein Standard along with radiolabeled polymer samples. Control mixtures of 6 μL of [^111In]8 solution with 6 μL of PBS and reference mixtures of 6 μL of [^111In]8 solution and 6 μL of 50 μg/mL solutions of TCO-CC49 or TCO-KS254 were prepared and processed in the same manner. Developed gels were exposed against phosphor storage screens (PerkinElmer Multisensitive), which were then read in the Cyclone Plus phosphorimager (Packard Instruments, USA). Autoradiograms were quantified using Optiquant 3.0 software (Packard Instruments). Molecular weight reference ladder from the photo of the same gel aligned and merged to the autoradiogram is shown to the left in FIG. 8. Radioactivity found in the section of the gel corresponding to molecular weights of 60 kDa and above (using SeeBlue standards as reference) was considered polymer-bound or antibody-bound.
(§4) Trapping efficiency (TE) was calculated according to the formula:
(§5) % TE=100%×(1−% BTz/% BnoTz),
(§6) where % BTz is the percentage of polymer/antibody bound ^111In activity in the eluate collected from a column with tetrazine-conjugated agarose, while % BnoTz is the percentage of polymer/antibody bound ^111In activity in the eluate collected from a control column with tetrazine-free agarose.
(§7) For each column, evaluation of trapping efficiency for TCO-CC49 and TCO-KS254 was repeated 9 days after the first evaluation. In between evaluations, the columns were stored at 4° C. in phosphate-buffered saline with 0.1% vol/vol of ProClin™ 150 (Sigma-Aldrich).

[2] = Trapping of TCO-KS254 from PBS solution by tetrazine-agarose columns, eluate titrated with [111In]8; conditions: for % TE mean ± SD, 2nd evaluation, TCO-KS254: repeated 9 days after first evaluation, columns stored at 4° C.; for % TE mean ± SD, 2nd evaluation, TCO-KS254 / % TE mean ± SD, 1st evaluation, TCO-KS254: n = 2; for % TE mean ± SD, 1st evaluation, TCO-KS254: trapping efficiency, single pass, 100 μg/mL in PBS, 0.5 mL/min; for Trapping efficiencies of TCO-KS254 polymer compared with resins with shorter or no linker (tetrazines 1, 3 and 5): comparison in words, longer linkers
Method: as §1, §2, §3, §4, §5, §6, §7

[3] = Dissolution of amino-tetrazine in phosphate-buffered saline; format: physicochemical; conditions: PBS, 120 mM NaCl, 10 mM phosphate buffer pH 7.4
Method: Amino-tetrazine (1-6) was dissolved in phosphate-buffered saline (PBS, 120 mM NaCl, 10 mM phosphate buffer pH 7.4) to a concentration of 4 mM (tetrazine 5 could only be dissolved to a concentration of 2.7 mM). This solution was added to dry NHS-activated agarose resin (Pierce/Thermo Fisher Scientific) at the ratio of 1 mL solution per 60 mg resin. The resin was shaken in a plastic tube with a filter frit for 2-3 h at room temperature, then tetrazine solution was removed by vacuum filtration, and the resin was washed 3 times with PBS at the same mL-per-mg resin ratio. After that, Tris-HCl buffer (0.5M, pH 7.4) was added to the resin, the resin was shaken for 2-3 h at room temperature or overnight at 4° C. and washed 3 times with PBS. Control resin (tetrazine-free quenched agarose) was prepared in the same way, but pure PBS without amino-tetrazines was used for the initial incubation.

Row | Structure (SMILES) | % TE mean ± SD, 2nd evaluation, TCO-CC49 [1] | % TE mean ± SD, 1st evaluation, TCO-CC49 [1] | % TE mean ± SD, 2nd evaluation, TCO-KS254 [2] | % TE mean ± SD, 1st evaluation, TCO-KS254 [2] | Trapping efficiencies of TCO-KS254 polymer compared with resins with shorter or no linker (tetrazines 1, 3 and 5) [2] | Concentration to which the tetrazine could be dissolved [3]
1 | NCc1ccc(-c2nncnn2)cc1.O=C(O)C(F)(F)F [Tetrazine 3, (4-(1,2,4,5-Tetrazin-3-yl)phenyl)methanaminium trifluoroacetate] | 96 ± 0.4% | 99 ± 1^ % | 78 ± 1% | 93 ± 10% | – | –
2 | NCCOCCOCCOCCOCCOCCOCCOCCOCCOCCOCCOCCNC(=O)CCCC(=O)NCc1ccc(-c2nncnn2)cc1 [Tetrazine 4, 37,41-dioxo-41-((4-(1,2,4,5-Tetrazin-3-l)benzyl)amino)-3,6,9,12,15,18,21,24,27,30,33-undecaoxa-36-azahentetracontan-1-aminium trifluoroacetate] | 92 ± 0.4% | 96 ± 6^ % | 56 ± 2% | 75 ± 0.2% | lower trapping efficiencies | –
3 | NCCOCCOCCOCCOCCOCCOCCOCCOCCOCCOCCOCCNC(=O)CCCC(=O)Nc1ccc(-c2nnc(-c3ccccn3)nn2)nc1.O=C(O)C(F)(F)F [Tetrazine 6, 37,41-dioxo-41-((6-(6-(pyridin-2-yl)-1,2,4,5-tetrazin-3-yl)pyridin-3-yl)amino)-3,6,9,12,15,18,21,24,27,30,33-undecaoxa-36-azahentetracontan-1-aminium trifluoroacetate] | 72 ± 1^ % | 93 ± 7^ % | 50 ± 6% | 64 ± 0% | lower trapping efficiencies | –
4 | NCCCCCCCC(=O)Nc1ccc(-c2nnc(-c3ccccn3)nn2)nc1.O=C(O)C(F)(F)F [Tetrazine 5, 8-amino—N-(6-(6-(pyridin-2-yl)-1,2,4,5-tetrazin-3-yl)pyridin-3-yl)octanamide 2,2,2-trifluoroacetate] | 89 ± 3^ % | 98 ± 0.4% | 67 ± 0.3% | 85 ± 5% | – | 2700 µM
